In patent publication US20240091244A1, “PHARMACEUTICAL COMPOSITIONS COMPRISING PICROSIDE” (SAVA HEALTHCARE LIMITED, priority 2021, published 2024):

Assays:
[1] = test system: mice with cyclophosphamide induced neutropenia; test: Administration of Picroside I / Picroside II (injectable, subcutaneous) to mice with cyclophosphamide induced neutropenia; type: in vivo, Swiss albino mice; conditions: for changes in body weight / clinical signs of toxicity and mortality: 1 mg/mouse/day subcutaneous for 5 days; for Total leukocyte count on Day 10 as compared to Group 2 / neutrophil count on Day 10 as compared to Group 2 / % Neutrophil (day 10) / neutrophil count compared with Group 1 (Normal control): 1 mg/mouse/day subcutaneous; for Total leukocyte count on Day 10 as compared to Group 2 / neutrophil count on Day 10 as compared to Group 2 / % Neutrophil (day 10): day 5 to day 10; for % Neutrophil (day 10) / neutrophil count compared with Group 1 (Normal control): day 10; for neutrophil count compared with Group 1 (Normal control): P<0.01; for % Neutrophil (day 3): day 3 after cyclophosphamide 150 mg/kg ip, before treatment (baseline of the group); for reversal of cyclophosphamide induced neutropenia: injection
Protocol: (§1) In-house bred Swiss albino mice were housed under standard laboratory conditions, such as, air-conditioned with adequate fresh air supply (air changes 12-15 per hour), room temperature of 21.1-23.2° C. and relative humidity of 55-69%, with 12 hours light and 12 hours dark cycle were strictly maintained in the experimental room. The mice were acclimatized for a minimum period of seven days to laboratory conditions.
(§2) The selected Swiss albino mice were randomized into four groups based on body weight, each group comprising of 6 mice. Group 2 and 3, 4 animals were treated with 150 mg/kg of cyclophosphamide through intraperitoneal route on Day 0 to initiate inducing neutropenia. On Day 3, the animals of group 2, 3 and 4, reflected the cyclophosphamide induced neutropenication when compared with Group 1 (Control) mice. On day 4, mice from Groups 2, 3 and 4 were again injected with a single dose of 100 mg/kg of cyclophosphamide. Total and differential count (neutrophils, lymphocytes, and monocytes) was recorded on day 3. The neutrophil count on day 3 was compared between groups using One-way ANOVA followed by Dunnett's test or student ‘t’ test. P<0.05 was considered statistically significant.
Cyclophosphamide related neutropenia was induced in mice subjects using method according to Example 6. Injectable composition was prepared using the method according to Example 5. The Picroside I composition was administered through subcutaneous route at a dose of 1 mg/mouse/day to the animals in Group 3 for 5 days respectively starting from day 5 ending at day 10. Picroside II composition was administered through subcutaneous route at a dose of 1 mg/mouse/day to the animals in Group 4 for 5 days respectively starting from day 5 ending at day 10. On day 10, again blood was collected to count the total leucocyte count and differential count (neutrophils, lymphocytes, and monocytes) manually. The neutrophil count on day 10 was compared between groups using One-way ANOVA followed by Dunnett's test or student ‘t’ test. P<0.05 was considered statistically significant.

[2] = Stability analysis of injectable composition of Picroside I and 2.5% PEG400 by HPLC quantitative analysis; type: physicochemical; conditions: 1 mg Picroside I in 2.5% PEG400; for % Result (1 month): HPLC 220 nm
Protocol: The purified Picroside I prepared by the methods according to Example 1, 2, and 3 was used for the said injection composition. Injection preparation was prepared by dissolving 1 mg Picroside I in solvent, controlling pH to about 4-land then filling in ampules followed by subsequent sterilizing by conventional injection preparation method. For comparative compositions, different solvents such as methanol, 2.5% PEG400, 5% PEG400, 5% DMSO, 5% ethyl lactate, and 1.4% propylene glycol were used for Picroside I solubility.
The solutions were kept for sonication for 15 min and left the solutions stand at room temperature for 1 hour. HPLC was used for quantitative analysis.
Three compositions of 1 mg Picroside I and 2.5% PEG400 were kept for sonication for 15 min and left to stand at room temperature (RT), 2-8° C. and 40° C., 75% RH for 1 month. and injected (20 μL) into HPLC at 220 nm for quantitative analysis.

[3] = test system: mice with cyclophosphamide induced neutropenia; test: Administration of Picroside I (oral tablets) to mice with cyclophosphamide induced neutropenia; type: in vivo, Swiss albino mice; conditions: for Neutrophil (10^9/L) (day 10) / WBC (10^9/L) (day 10): day 5 to day 10; for Neutrophil (10^9/L) (day 3) / WBC (10^9/L) (day 3): day 3, before treatment (baseline)
Protocol: as §1, §2
Cyclophosphamide related neutropenia was induced in mice subjects using method according to Example 6. Oral tablet composition was prepared using the method according to Example 4. The Picroside I composition was administered orally at a dose of 2 mg/mouse/day (2 tablets) to the animals in Group 1 and Group 2 for 5 days respectively starting from day 5 ending at day 10. For a comparative study, oral composition was administered using distilled water and PEG. Specifically, oral tablets were administered in distilled water to mice in Group 1 and in 5% PEG to mice in Group 2. On day 10, again blood was collected to count the total leucocyte count and differential count (neutrophils, lymphocytes, and monocytes) manually. The neutrophil count on day 10 was compared between groups using One-way ANOVA followed by Dunnett's test or student ‘t’ test. P<0.05 was considered statistically significant.

[4] = test system: mice with cyclophosphamide induced neutropenia; test: Comparative administration of Picroside I and G-CSF to mice with cyclophosphamide induced neutropenia; type: in vivo, Swiss albino mice; conditions: for % Neutrophil (day 0): day 0, before cyclophosphamide (baseline of the group); for % Neutrophil (day 3): day 3 after cyclophosphamide, before treatment; for % Neutrophil (day 10): Picroside I 1 mg/mouse/day, G-CSF 2 μg/mouse/day
Protocol: as §1, §2
(§3) Cyclophosphamide related neutropenia was induced in mice subjects using method according to Example 6. Group 1 was marked vehicle control group, Group 2 was marked cyclophosphamide control, Group 3 was marked treated with Picroside I and Group 4 was marked treated with G-CSF treated. The Picroside I composition was administered through subcutaneous route at a dose of 1 mg/mouse/day to the animals in Group 3 for 5 days respectively starting from day 5 ending at day 10. The G-CSF composition was administered through subcutaneous route at a dose of 2 μg/mouse/day to the animals in Group 4 for 5 days respectively starting from day 5 ending at day 10. On day 10, again blood was collected to count the total leucocyte count and differential count (neutrophils, lymphocytes, and monocytes) manually. The neutrophil count on day 10 was compared between groups using One-way ANOVA followed by Dunnett's test or student ‘t’ test. P<0.05 was considered statistically significant. Additionally, hepatotoxicity was observed by investigating ALT and AST levels.

[5] = test system: cyclophosphamide induced hepatotoxicity; test: Effect in cyclophosphamide induced hepatotoxicity (AST and ALT levels); type: in vivo, Swiss albino mice; conditions: for ALT (IU/L) / AST (IU/L): day 5 to day 10, Picroside I 1 mg/mouse/day, G-CSF 2 μg/mouse/day, cyclophosphamide treated mice
Protocol: as §2, §3

[6] = 2 mg/mouse/day oral, in distilled water (Group 1) and in 5% PEG (Group 2)
[7] = Group 1, 2 mg/mouse/day oral (2 tablets) in distilled water
[8] = Group 1, tablets in distilled water
[9] = Group 2, 2 mg/mouse/day oral (2 tablets) in 5% PEG
[10] = Picroside I 1 mg/mouse/day vs G-CSF 2 μg/mouse/day, subcutaneous
[11] = 1 mg/mouse/day subcutaneous, p<0.001

Question: For COc1cc(C(=O)O[C@H]2[C@@H]3C=CO[C@@H](O[C@@H]4O[C@H](CO)[C@@H](O)[C@H](O)[C@H]4O)[C@@H]3[C@@]3(CO)O[C@@H]23)ccc1O [Picroside II], which “changes in body weight” value [1] is on record?
Answer: no treatment related changes in body weight

Question: And the “clinical signs of toxicity and mortality” value [1]?
Answer: no clinical signs of toxicity and mortality

Question: What about the “Total leukocyte count on Day 10 as compared to Group 2” value [1] of the same molecule?
Answer: significant increase

Question: What about the “neutrophil count on Day 10 as compared to Group 2” value [1] of the same molecule?
Answer: significant increase

Question: What about the “% Neutrophil (day 10)” value [1] of the same molecule?
Answer: 32.83%

Question: And the “neutrophil count compared with Group 1 (Normal control)” value [1]?
Answer: increased neutrophil count significantly

Question: What about the “% Neutrophil (day 3)” value [1] of the same molecule?
Answer: 21.83%

Question: And the “reversal of cyclophosphamide induced neutropenia” value [1]?
Answer: significantly reverses

Question: What does the source list for O=C(/C=C/c1ccccc1)OC[C@H]1O[C@@H](O[C@@H]2OC=C[C@H]3[C@H](O)[C@@H]4O[C@]4(CO)[C@@H]23)[C@H](O)[C@@H](O)[C@@H]1O [Picroside I]?
Answer: stability over a period of 1 month ([2]; RT, 2-8° C. and 40° C., 75% RH): excellent stability; % Result (1 month) ([2]; stored at 2-8° C. for 1 month): 96.59%; % Result (1 month) ([2]; stored at 40° C., 75% RH for 1 month): 86.89%; % Result (1 month) ([2]; stored at RT for 1 month): 102.33%; changes in body weight [1]: no treatment related changes in body weight; clinical signs of toxicity and mortality [1]: no clinical signs of toxicity and mortality; Total leukocyte count on Day 10 as compared to Group 2 [1]: significant increase; neutrophil count on Day 10 as compared to Group 2 [1]: significant increase; % Neutrophil (day 10) [1]: 32.67%; neutrophil count compared with Group 1 (Normal control) [1]: increased neutrophil count significantly; % Neutrophil (day 3) [1]: 20.83%; reversal of cyclophosphamide induced neutropenia [1]: significantly reverses; changes in body weight ([3]; 2 mg/mouse/day oral for 5 days): no treatment related changes in body weight; clinical signs of toxicity and mortality ([3]; 2 mg/mouse/day oral for 5 days): no clinical signs of toxicity and mortality; Total leukocyte count on Day 10 as compared that on Day 3 [3, 6]: significant increase; neutrophil count on Day 10 as compared that on Day 3 [3, 6]: significant increase; Neutrophil (10^9/L) (day 10) [3, 7]: 1.58 10^9/L; WBC (10^9/L) (day 10) [3, 7]: 9.5 10^9/L; Neutrophil (10^9/L) (day 3) [3, 8]: 0.38 10^9/L; WBC (10^9/L) (day 3) [3, 8]: 1.75 10^9/L; Neutrophil (10^9/L) (day 10) [3, 9]: 1.03 10^9/L; WBC (10^9/L) (day 10) [3, 9]: 8.9 10^9/L; Neutrophil (10^9/L) (day 3) ([3]; Group 2, tablets in 5% PEG): 0.31 10^9/L; WBC (10^9/L) (day 3) ([3]; Group 2, tablets in 5% PEG): 2.01 10^9/L; reversal of cyclophosphamide induced neutropenia ([3]; oral tablets): significantly reverses; effect on cyclophosphamide induced decrease in % neutrophil ([4]; 1 mg/mouse/day subcutaneous, day 5 to day 10): alleviation; observed changes in % neutrophil relative to G-CSF treatment [4, 10]: comparable to that of G-CSF treatment; % Neutrophil (day 0) [4]: 46.00%; % Neutrophil (day 3) [4]: 6.600%; % Neutrophil (day 10) ([4]; subcutaneous, day 5 to day 10): 23.90%; ALT levels when compared to the Group 2 [5, 11]: significant reversal; AST levels when compared to the Group 2 [5, 11]: significant reversal; decrease in AST and ALT relative to G-CSF treatment [5, 10]: comparable; ALT (IU/L) ([5]; subcutaneous): 37.16 IU/L; AST (IU/L) ([5]; subcutaneous): 50.32 IU/L

B1: G-CSF: Granulocyte Colony Stimulating Factor, FDA approved drug for treating severe neutropenia; comparator (protein, UniProt P09919 31-207, looked up)
Granulocyte …: TPLGPASSLPQSFLLKCLEQVRKIQGDGAALQEKLVSECATYKLCHPEELVLLGHSLGIPWAPLSSCPSQALQLAGCLSQLHSGLFLYQGLLQALEGISPELGPTLDTLQLDVADFATTIWQQMEELGMAPALQPTQGAMPAFASAFQRRAGGVLVASHLQSFLEVSYRVLRHLAQP
Question: What does the source list for B1?
Answer: % Neutrophil (day 0) [4]: 46.10%; % Neutrophil (day 3) [4]: 6.700%; % Neutrophil (day 10) ([4]; subcutaneous, day 5 to day 10): 28.20%; ALT (IU/L) ([5]; subcutaneous): 36.17 IU/L; AST (IU/L) ([5]; subcutaneous): 50.54 IU/L
